pIC50: −log10 of the molar value.
Each molecule was assayed against Human Factor D (Homo sapiens (Human), UniProt P00746) (assay: Human Factor D Assay). Settings: Table 6; Factor D 80 nM, substrate Z-L-Lys-SBz; read-out: IC50.
Chain of Human Factor D (P00746 26-253): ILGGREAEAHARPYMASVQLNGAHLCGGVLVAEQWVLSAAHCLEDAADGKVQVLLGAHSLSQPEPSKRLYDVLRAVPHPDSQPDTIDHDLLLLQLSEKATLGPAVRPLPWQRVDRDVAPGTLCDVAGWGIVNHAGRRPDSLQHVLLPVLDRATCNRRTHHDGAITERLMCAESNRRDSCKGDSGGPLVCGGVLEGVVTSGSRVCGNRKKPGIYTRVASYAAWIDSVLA
Assay type: biochemical
How it was run: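 Thioester substrate Z-L-Lys-SBz (100 μM) with Ellman's reagent DTNB (100 μM) reports activity of 80 nM human serum-derived enzyme, kinetically at 405 nm over 30 min. Compound preincubated 5 min, room temperature, pH 7.5 Tris/1 M NaCl; IC50 by nonlinear fit of rates.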
Molecule `COC[C@@]12C[C@@H](C(=O)Nc3nc(Br)ccc3C)N(C(=O)Cn3nc(C(C)=O)c4cc(-c5cnc(C)nc5)cc(C)c43)[C@@H]1C2` [Compound 98, (1R,3S,5S)-2-(2-(3-Acetyl-7-methyl-5-(2-methylpyrimidin-5-yl)-1H-indazol-1-yl)acetyl)-N-(6-bromo-3-methylpyridin-2-yl)-5-(methoxymethyl)-2-azabicyclo[3.1.0]hexane-3-carboxamide] has a pIC50 of over 6.00.
`COC(=O)N[C@H](C(=O)NC[C@@]12C[C@@H](C(=O)Nc3nc(Br)ccc3C)N(C(=O)Cn3nc(C(C)=O)c4cc(-c5cnc(C)nc5)cc(C)c43)[C@@H]1C2)C(C)C` [Compound 99, methyl ((S)-1-((((lR,3S,5R)-2-(2-(3-acetyl-7-methyl-5-(2-methylpyrimidin-5-yl)-1H-indazol-1-yl)acetyl)-3-((6-bromo-3-methylpyridin-2-yl)carbamoyl)-2-azabicyclo[3.1.0]hexan-5-yl)methyl)amino)-3-methyl-1-oxobutan-2-yl)carbamate] showed a pIC50 of over 6.00.
Molecule `CC(=O)c1nn(CC(=O)N2[C@H](C(=O)Nc3nc(Br)ccc3C)C[C@@]3(CN(C)C)C[C@@H]23)c2c(C)cc(-c3cnc(C)nc3)cc12` [Compound 100, (1R,3S,5R)-2-(2-(3-acetyl-7-methyl-5-(2-methylpyrimidin-5-yl)-1H-indazol-1-yl)acetyl)-N-(6-bromo-3-methylpyridin-2-yl)-5-((dimethylamino)methyl)-2-azabicyclo[3.1.0]hexane-3-carboxamide] has a pIC50 of over 6.00.
`CC(=O)c1nn(CC(=O)N2[C@H](C(=O)Nc3nc(Br)ccc3C)C[C@@]3(CNS(C)(=O)=O)C[C@@H]23)c2c(C)cc(-c3cnc(C)nc3)cc12` [Compound 101, (1R,3S,5R)-2-(2-(3-Acetyl-7-methyl-5-(2-methylpyrimidin-5-yl)-1H-indazol-1-yl)acetyl)-N-(6-bromo-3-methylpyridin-2-yl)-5-(methylsulfonamidomethyl)-2-azabicyclo[3.1.0]hexane-3-carboxamide] was tested, and the pIC50 was over 6.00.
Work on `CC(=O)c1nn(CC(=O)N2[C@H](C(=O)Nc3nc(Br)ccc3C)C[C@@]3(CNC(=O)CC(F)(F)F)C[C@@H]23)c2c(C)cc(-c3cnc(C)nc3)cc12` [Compound 102, (1R,3S,5R)-2-(2-(3-Acetyl-7-methyl-5-(2-methylpyrimidin-5-yl)-1H-indazol-1-yl)acetyl)-N-(6-bromo-3-methylpyridin-2-yl)-5-((3,3,3-trifluoropropanamido)methyl)-2-azabicyclo[3.1.0]hexane-3-carboxamide] yielded a pIC50 of over 6.00.
For `CC(=O)c1nn(CC(=O)N2[C@H](C(=O)Nc3nc(Br)ccc3C)C[C@@]3(C)C[C@@H]23)c2ccc(-c3cnc(CN(C)C)nc3)cc12` [Compound 103, (1R,3S,5R)-2-(2-(3-Acetyl-5-(2-((dimethylamino)methyl)pyrimidin-5-yl)-1H-indazol-1-yl)acetyl)-N-(6-bromo-3-methylpyridin-2-yl)-5-methyl-2-azabicyclo[3.1.0]hexane-3-carboxamide], the pIC50 was over 6.00.
`CC(=O)c1nn(CC(=O)N2[C@H](C(=O)Nc3nc(Br)c(F)cc3C)C[C@@]3(C)C[C@@H]23)c2cnc(-c3cnc(C)nc3)cc12` [Compound 104, (1R,3S,5R)-2-(2-(3-Acetyl-5-(2-methylpyrimidin-5-yl)-1H-pyrazolo[3,4-c]pyridin-1-yl)acetyl)-N-(6-bromo-5-fluoro-3-methylpyridin-2-yl)-5-methyl-2-azabicyclo[3.1.0]hexane-3-carboxamide] was tested, and the pIC50 was over 6.00.
Work on `CC(=O)c1nn(CC(=O)N2[C@H](C(=O)Nc3cccc(O)n3)C[C@@]3(C)C[C@@H]23)c2c(C)cc(-c3cnc(C)nc3)cc12` [Compound 105, (1R,3S,5R)-2-(2-(3-Acetyl-7-methyl-5-(2-methylpyrimidin-5-yl)-1H-indazol-1-yl)acetyl)-N-(6-hydroxypyridin-2-yl)-5-methyl-2-azabicyclo[3.1.0]hexane-3-carboxamide] yielded a pIC50 of over 6.00.
`COc1ncc(-c2ccc3c(c2)c(C(C)=O)nn3CC(=O)N2[C@H](C(=O)Nc3cccc(Br)n3)C[C@@]3(C)C[C@@H]23)cn1` [Compound 108, (1R,3S,5R)-2-(2-(3-Acetyl-5-(2-methoxypyrimidin-5-yl)-1H-indazol-1-yl)acetyl)-N-(6-bromopyridin-2-yl)-5-methyl-2-azabicyclo[3.1.0]hexane-3-carboxamide] showed a pIC50 of over 6.00.
In the case of `CC(=O)c1nn(CC(=O)N2C[C@H]3C[C@H]3[C@H]2C(=O)O)c2c(C)cc(-c3cnc(C)nc3)cc12` [Compound 111, (1R,2S,5S)-3-(2-(3-acetyl-7-methyl-5-(2-methylpyrimidin-5-yl)-1H-indazol-1-yl)acetyl)-3-azabicyclo[3.1.0]hexane-2-carboxylic acid], the pIC50 was under 5.00.
`CC(=O)c1nn(CC(=O)N2[C@H](C(=O)Nc3nc(Br)ccc3C3CC3)C[C@@]3(CN(C)C)C[C@@H]23)c2ccc(-c3cnc(C)nc3)cc12` [Compound 112, (1R,3S,5R)-2-(2-(3-Acetyl-5-(2-methylpyrimidin-5-yl)-1H-indazol-1-yl)acetyl)-N-(6-bromo-3-cyclopropylpyridin-2-yl)-5-((dimethylamino)methyl)-2-azabicyclo[3.1.0]hexane-3-carboxamide] was tested, and the pIC50 was over 6.00.
For `CC(=O)c1nn(CC(=O)N2[C@H](C(=O)Nc3nc(Br)ccc3C)C[C@@]3(CNCCF)C[C@@H]23)c2c(C)cc(-c3cnc(C)nc3)cc12` [Compound 113, (1R,3S,5R)-2-(2-(3-Acetyl-7-methyl-5-(2-methylpyrimidin-5-yl)-1H-indazol-1-yl)acetyl)-N-(6-bromo-3-methylpyridin-2-yl)-5-((2-fluoroethylamino)methyl)-2-azabicyclo[3.1.0]hexane-3-carboxamide], the pIC50 was over 6.00.
Molecule `COCc1cc(-c2cnc(C)nc2)cc2c(C(C)=O)nn(CC(=O)N3[C@H](C(=O)Nc4nc(Br)ccc4C)C[C@@]4(COC)C[C@@H]34)c12` [Compound 114, (1R,3S,5S)-2-(2-(3-Acetyl-7-(methoxymethyl)-5-(2-methylpyrimidin-5-yl)-1H-indazol-1-yl)acetyl)-N-(6-bromo-3-methylpyridin-2-yl)-5-(methoxymethyl)-2-azabicyclo[3.1.0]hexane-3-carboxamide] has a pIC50 of over 6.00.
Work on `Cc1ncc(-c2cc(C)c3c(c2)c(C(C)O)nn3CC(=O)N2C[C@H]3C[C@H]3[C@H]2C(=O)Nc2nc(Br)ccc2C)cn1` (stereo partly drawn) [Compound 115, (1R,2S,5S)-N-(6-bromo-3-methylpyridin-2-yl)-3-(2-(3-(1-hydroxyethyl)-7-methyl-5-(2-methylpyrimidin-5-yl)-1H-indazol-1-yl)acetyl)-3-azabicyclo[3.1.0]hexane-2-carboxamide] yielded a pIC50 of 5.00 to 6.00.
Molecule `CC(=O)c1nn(CC(=O)N2[C@H](C(=O)Nc3cc(F)cc(Br)n3)C[C@@]3(C)C[C@@H]23)c2c(C)cc(-c3cnc(C)nc3)cc12` [Compound 116, (1R,3S,5R)-2-(2-(3-Acetyl-7-methyl-5-(2-methylpyrimidin-5-yl)-1H-indazol-1-yl)acetyl)-N-(6-bromo-4-fluoropyridin-2-yl)-5-methyl-2-azabicyclo[3.1.0]hexane-3-carboxamide] has a pIC50 of over 6.00.
Work on `CC(=O)c1nn(CC(=O)N2C[C@H](F)C[C@H]2C(=O)Nc2nc(Br)ccc2CC(=O)N(C)C)c2ccc(-c3cnc(C)nc3)cc12` [Compound 117, (2S,4R)-1-(2-(3-Acetyl-5-(2-methylpyrimidin-5-yl)-1H-indazol-1-yl)acetyl)-N-(6-bromo-3-(2-(dimethylamino)-2-oxoethyl)pyridin-2-yl)-4-fluoropyrrolidine-2-carboxamide] yielded a pIC50 of over 6.00.
`CCN(CC)C[C@@]12C[C@@H](C(=O)Nc3nc(Br)ccc3C)N(C(=O)Cn3nc(C(C)=O)c4cc(-c5cnc(C)nc5)cc(C)c43)[C@@H]1C2` [Compound 118, (1R,3S,5R)-2-(2-(3-Acetyl-7-methyl-5-(2-methylpyrimidin-5-yl)-1H-indazol-1-yl)acetyl)-N-(6-bromo-3-methylpyridin-2-yl)-5-((diethylamino)methyl)-2-azabicyclo[3.1.0]hexane-3-carboxamide] showed a pIC50 of over 6.00.
`CC(=O)c1nn(CC(=O)N2[C@H](C(=O)Nc3nc(Br)ccc3C)C[C@@]3(CN4C[C@H]5CCC[C@H]5C4)C[C@@H]23)c2ccc(-c3cnc(C)nc3)cc12` [Compound 119, (1R,3S,5R)-2-(2-(3-Acetyl-5-(2-methylpyrimidin-5-yl)-1H-indazol-1-yl)acetyl)-N-(6-bromo-3-methylpyridin-2-yl)-5-(((3aR,6aS)-hexahydrocyclopenta[c]pyrrol-2(1H)-yl)methyl)-2-azabicyclo[3.1.0]hexane-3-carboxamide] was tested, and the pIC50 was over 6.00.
Work on `CNc1ncc(-c2ccc3c(c2)c(C(C)=O)nn3CC(=O)N2[C@H](C(=O)Nc3nc(Br)ccc3C)C[C@@]3(C)C[C@@H]23)cn1` [Compound 120, (1R,3S,5R)-2-(2-(3-Acetyl-5-(2-(methylamino)pyrimidin-5-yl)-1H-indazol-1-yl)acetyl)-N-(6-bromo-3-methylpyridin-2-yl)-5-methyl-2-azabicyclo[3.1.0]hexane-3-carboxamide] yielded a pIC50 of over 6.00.
`C=CCCCCN(C)C[C@@]12C[C@@H](C(=O)Nc3nc(Br)ccc3C=C)N(C(=O)Cn3nc(C(C)=O)c4cc(-c5cnc(C)nc5)ccc43)[C@@H]1C2` [Compound 123, (1R,3S,5R)-2-(2-(3-Acetyl-5-(2-methylpyrimidin-5-yl)-1H-indazol-1-yl)acetyl)-N-(6-bromo-3-vinylpyridin-2-yl)-5-((hex-5-en-1-yl(methyl)amino)methyl)-2-azabicyclo[3.1.0]hexane-3-carboxamide] showed a pIC50 of over 6.00.
For `CC(=O)c1nn(CC(=O)N2[C@H](C(=O)Nc3nc(Br)ccc3C)C[C@@]3(C)C[C@@H]23)c2c(C#N)cc(-c3cnc(C)nc3)cc12` [Compound 124, (1R,3S,5R)-2-(2-(3-Acetyl-7-cyano-5-(2-methylpyrimidin-5-yl)-1H-indazol-1-yl)acetyl)-N-(6-bromo-3-methylpyridin-2-yl)-5-methyl-2-azabicyclo[3.1.0]hexane-3-carboxamide], the pIC50 was over 6.00.

Source: US11084800B2 (Achillion Pharmaceuticals, Inc., priority 2017, dated 2021)
